Measurements reported in ChEMBL document CHEMBL1201862, “PubChem BioAssay data set” (2004).
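Where inhibition never reached the appropriate level, the endpoint shown equals the highest concentration tested. Otherwise, values were interpolated linearly from a five-concentration, 48-hour dose response in 96-well plates. GI50 marks 50% less growth.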 Calls of active or inactive are those of the source. Rule as the data show it: active = GI50 up to about 1.1 µM and inactive = higher.

Key:
Test in all cases: growth of human tumour cells (NCI), 48 h
HOP-18 = tested on: HOP-18
XF498 = tested on: XF498
DMS-273 = tested on: DMS-273
KM-20L2 = tested on: KM-20L2
LXFL 529 = tested on: LXFL 529
RXF 631 = tested on: RXF 631

Row | SMILES | GI50 (HOP-18) | GI50 (XF498) | GI50 (DMS-273) | GI50 (KM-20L2) | GI50 (LXFL 529) | GI50 (RXF 631)
1 | Cc1c(CCO)c(O)n2c(nc3ccccc32)c1C#N | 47.5 µM (inactive) | > 100 µM (inactive) | 63.2 µM (inactive) | 66.5 µM (inactive) | 36.6 µM (inactive) | –
2 | O=C(c1ccccc1)c1cccc(C(=O)c2ccccc2)c1 | > 100 µM (inactive) | > 100 µM (inactive) | > 100 µM (inactive) | – | 74.1 µM (inactive) | –
3 | Oc1cc(-c2ccccn2)nc2cc(F)ccc12 | 40.4 µM (inactive) | – | – | > 100 µM (inactive) | > 100 µM (inactive) | > 100 µM (inactive)
4 | CC(=O)OC1COC(N2CCc3ccccc32)C(OC(C)=O)C1OC(C)=O (centres undefined) | > 100 µM (inactive) | > 100 µM (inactive) | > 100 µM (inactive) | > 100 µM (inactive) | > 100 µM (inactive) | > 100 µM (inactive)
5 | CC(C)=CC(=O)N1CCN(C(=O)C=C(C)C)CC1 | > 100 µM (inactive) | > 100 µM (inactive) | > 100 µM (inactive) | > 100 µM (inactive) | > 100 µM (inactive) | > 100 µM (inactive)
6 | CC(=O)NNc1nc(C)c(C(/C=C/c2ccc(Cl)cc2)=N\NS(=O)(=O)c2ccc(C)cc2)s1 | > 100 µM (inactive) | > 60.4 µM (inactive) | > 100 µM (inactive) | > 100 µM (inactive) | > 100 µM (inactive) | > 100 µM (inactive)
7 | CCOC(=O)C1(C#N)C(c2ccccc2)CC(O)(c2ccc(Cl)cc2)C(C(=O)c2ccc(Cl)cc2)C1c1ccccc1 (centres undefined) | > 100 µM (inactive) | 65.9 µM (inactive) | 67.1 µM (inactive) | > 100 µM (inactive) | 69.5 µM (inactive) | –
8 | CC1=C(C(=O)O)N2C(=O)[C@@H](NC(=O)C(c3ccc(O)cc3)N3CSC(=S)N(C(C)C)C3)C2SC1 (some centres undefined) | > 100 µM (inactive) | > 100 µM (inactive) | > 100 µM (inactive) | > 100 µM (inactive) | > 100 µM (inactive) | –
9 | CC(CN1CCN(CC(C)Nc2ccnc3cc(Cl)ccc23)CC1)Nc1ccnc2cc(Cl)ccc12 (centres undefined) | – | 23.3 µM (inactive) | 16.3 µM (inactive) | 13.4 µM (inactive) | 16.6 µM (inactive) | 12.4 µM (inactive)
10 | O=[N+]([O-])c1ccc(C(Cl)C(Cl)c2ccc(C(Cl)C(Cl)c3ccc([N+](=O)[O-])cc3[N+](=O)[O-])cc2)c([N+](=O)[O-])c1 (centres undefined) | – | 0.184 µM (active) | 1.47 µM (inactive) | 0.0638 µM (active) | 0.92 µM (active) | 1.57 µM (inactive)
11 | CCOC(=O)CCc1c(C)c2c(OC)cc(OC)cc2oc1=O | 32.1 µM (inactive) | 35.2 µM (inactive) | 41.8 µM (inactive) | > 100 µM (inactive) | 62.5 µM (inactive) | –
12 | O=C1CN=C(C[N+](=O)[O-])c2ccccc21 | > 100 µM (inactive) | – | > 100 µM (inactive) | > 100 µM (inactive) | > 100 µM (inactive) | > 100 µM (inactive)
13 | O=C1C2C3CC(C4C5C=CC(C5)C34)C2C2C3CC(C12)C1C2C=CC(C2)C31 (centres undefined) | > 100 µM (inactive) | > 100 µM (inactive) | > 100 µM (inactive) | > 100 µM (inactive) | > 100 µM (inactive) | > 100 µM (inactive)
14 | O=C(CC1C(=O)Nc2ccccc2[S+]1[O-])Nc1ccccc1 (centres undefined) | > 100 µM (inactive) | > 100 µM (inactive) | > 100 µM (inactive) | > 100 µM (inactive) | > 100 µM (inactive) | > 100 µM (inactive)
15 | NC(=S)NNC(=O)CCC(=O)Nc1ccc(Cl)cc1Cl | – | – | 38.7 µM (inactive) | > 100 µM (inactive) | 26.1 µM (inactive) | > 100 µM (inactive)
16 | COC(=O)CCC(NC(=S)N/N=C(\C)c1nccs1)C(=O)OC (centres undefined) | 21.2 µM (inactive) | > 100 µM (inactive) | – | 31.8 µM (inactive) | 60.4 µM (inactive) | 58.2 µM (inactive)
17 | COC(=O)C1=Cc2c(OC)cc(OC)c(OC)c2[C@H](c2cc(OC)c(OC)cc2OC)C1C(=O)OC (some centres undefined) | – | > 100 µM (inactive) | 42.7 µM (inactive) | > 100 µM (inactive) | > 100 µM (inactive) | > 100 µM (inactive)
18 | COC(=O)[C@]1(C)CCC[C@@]2(C)C1CCC1=CC3(C(C)C)CCC12OO3 (some centres undefined) | – | – | – | 94 µM (inactive) | 31.4 µM (inactive) | > 100 µM (inactive)
19 | COc1cc(CN[C@H]2CCc3cc(OC)c(OC)c(OC)c3-c3ccc(SC)c(=O)cc32)cc(OC)c1 | – | 0.0596 µM (active) | 0.0341 µM (active) | 0.0206 µM (active) | 0.0494 µM (active) | < 0.01 µM (active)
20 | CSc1ccc2c(cc1=O)[C@@H](NC(=O)c1cccc([N+](=O)[O-])c1)CCc1cc(O)c(O)c(O)c1-2 | > 100 µM (inactive) | – | 32 µM (inactive) | 23 µM (inactive) | 35.8 µM (inactive) | 36.1 µM (inactive)
21 | CC(C)[C@H](CCl)NC(=O)c1cccc(C(=O)N[C@H](CCl)C(C)C)n1 (stereo in doubt) | – | > 100 µM (inactive) | > 100 µM (inactive) | > 100 µM (inactive) | > 100 µM (inactive) | > 100 µM (inactive)
22 | NC(=O)c1cc([N+](=O)[O-])cc([N+](=O)[O-])c1 [NITROMIDE] | – | – | > 100 µM (inactive) | > 100 µM (inactive) | > 100 µM (inactive) | > 100 µM (inactive)
